Key:
[1] = tested on: MCF-7 and MDA-MB-231 cell lines; details: 30 μM
Description: (§1) The procedure of treatment was as follows. After trypsinization the cells, 400,000 cells of MCF-7, MDA-MB-231 human mammary carcinoma, PC3 human prostate carcinoma or Ishikawa human endometrium tumour each were passed into Petri dishes of 10 cm in diameter. Starting from the day following transfer, the cells were treated with the substances to be tested in solution prepared with the nutrient medium during the exponential growth phase. The cultures were treated with 1 to 50 μM (calculated for the total volume of the culture) of MI-1544 GnRH antagonist, MI-1892 chicken GnRH antagonist or SJ-1004 GnRH antagonist analogues as well as synthetic lamprey GnRH-III hormone in every two days and the cell count was determined on the 7th day.

[2] = tested on: MDA-MB-231 xenograft; assay: In vivo antitumour effect on MDA-MB-231 xenograft; set-up: species or system immunosuppressed CBA/Ca mice; details: for Animals from 7 treated that became tumour-free: 6th week of treatment
Description: (§2) The immunosuppression of mice was carried out by using the method of Steel et al. (1978).
(§3) CBA/Ca female mice of about 6 weeks old were thymectomized and then, after one week, they were irradiated with 60Co (whole body irradiation; the lethal dose is 9.5 Gray). Within 24 hours 3 to 5×10^5 myelocytes were injected to the animals. Beneath the skin of the immunosuppressed mice 2×10^7 tumour cells or, in the case of later passages, about 2 mm^3 of tumour cells or in the case of later, additional passages about 2 mm^3 of tumour pieces were implanted. […] The treatment with steroid hormone was stopped by at least one week before beginning the investigation.
(§4) Recent investigations have begun on 28 animals bearing MCF-7 xenograft .and on 28 animals bearing MDA-MB-231 xenograft. On animals bearing MCF-7 tumour the treatment was commenced in the 5th week following xeno-transplantation; the tumour volume was 205 to 225 mm^3. On animals bearing MDA-MB-231 tumour, the treatment was started in the 4th week after xeno-transplantation with a tumour volume of 140 to 150 mm^3. […] The control groups were daily treated with physiological saline s.c. (Each treated group consisted of 7 animals.)
A more recent study was started on 28 animals bearing. MDA-MB-231 xenograft. The treatment was begun in the 4th or 5th week following xenotransplantation. The tumour volume was 0.165 to 0.194 cm3. […] (For treatment of the control group, see the preceding Examples). Each group consisted of 7 animals.

[3] = tested on: Ishikawa endometrium tumour cell culture; assay: Inhibition of colony formation (dose-survival), Example 48; format: cell-based, human; details: within the dose range used (1-50 μM)
Text: (§5) MCF-7 human mammary carcinoma cell line was stabilized in 1973 by Soule et al. from the pleural fluid of a patient suffering from mammary carcinoma. MDA-MB-231 human mammary carcinoma cell line was isolated and stabilized by Cailleau et al. in 1974 similarly from pleural fluid. Both cell lines grow in monolayer. MCF-7 and MDA-MB-231 human mammary carcinoma cell lines are maintained in plastic flasks (Greiner), in Dulbecco-modified Eagle-MEM (DMEM, GIBCO) liquid nutrient medium containing 10% of fetal calf serum. MCF-7 cell line is estradiol receptor (ER)-positive containing proteins specifically binding GnRH. Thus, it represents, a useful model system for investigating the direct effect of GnRH mediated by the GnRH receptor. Being ER-negative and GnRH receptor-positive, MDA-MB-231 cell line is similarly suitable to study the direct effect of GnRH. PC3 human prostate carcinoma cell line was stabilized in cell culture by Kaighn et al. in 1979. The cells are of epithelial type and form compact colonies in clonogenic assays. The Ishikawa cell line originates from human endometrial adenocarcinoma [M. Nishida et al.: Acta Obstet. Gynecol. Jpn. 37, 1103-1111 (1985)], it is epithelial in its character and contains steroid-as well as GnRH receptors.
(§6) The examination gives accurate information about the cell-damaging effect of the substance tested as a function of varying doses. The treatment was carried out once; the colonies formed from the surviving cells were counted after 8-12 days. […] A part of the arrested cells again entered the cycle, an other part of them might be destroyed (apoptosis). […] In the case of a dose-response investigation, colonies containing less than 15 cells were not counted. 300 cells were put into each Petri dishes of 3.5 cm in diameter. The treatment was once carried out 24 hours after setting, then the colonies formed were counted after 8-12 days. The cells were treated once after 24 hours with 1-50 μM of various GnRH analogues of Examples above or with 1-50 μM of GnRH-III, respectively. The percentages of inhibition obtained on MCF-7, MDA-MB-231, PC3 and Ishikawa cells, respectively, together with the dose of the active agent used are shown in Table VIII.

[4] = tested on: PC3 prostate tumour cell culture; assay: as above; format: cell-based, human; details: 50 μM
Text: as §5, §6

[5] = tested on: LH release from rat hypophysis; details: superfusion; cited from earlier work
[6] = tested on: ovulation of female rats; details: prolonged treatment for three cycles, even in high doses; cited from earlier work
[7] = tested on: Ishikawa human endometrium carcinoma cell line; assay: Inhibition of colony formation (dose-survival), Example 18; format: cell-based; details: 30 to 50 μM
[8] = tested on: MCF-7 human mammary carcinoma cell line; assay: as above; format: cell-based; details: 50 μM
[9] = tested on: MDA-MB-231 human mammary carcinoma cell line; assay: as above; format: cell-based; details: 50 μM
[10] = tested on: PC3 human prostate carcinoma cell line; assay: as above; format: cell-based
[11] = tested on: MCF-7 human mammary carcinoma cells; assay: In vitro inhibition of cell proliferation (cell count), Example 19; format: cell-based; details: 30 μM of active substance, conjugate, treated once, cell count on 7th day
Description: as §1, with “antagonist analogues as well as synthetic lamprey GnRH-III hormone in every two days and the cell count was determined” left out

[12] = tested on: MDA-MB-231 human mammary carcinoma cells; assay: as above; format: cell-based; details: 30 μM of active substance, conjugate, treated once, cell count on 7th day
Description: as §1, with “antagonist analogues as well as synthetic lamprey GnRH-III hormone in every two days and the cell count was determined” left out

[13] = tested on: Ishikawa human endometrium tumour cells; details: 30 μM of active substance, conjugate, treated once
Text: (§7) The procedure of treatment was as follows. After trypsinization the cells, 400,000 cells of MCF-7, MDA-MB-231 human mammary carcinoma, PC3 human prostate carcinoma or Ishikawa human endometrium tumour each were passed into Petri dishes of 10 cm in diameter. […]

[14] = tested on: PC3 human prostate carcinoma cells; assay: In vitro inhibition of cell proliferation (cell count), Example 19; format: cell-based; details: 30 μM of active substance, conjugate, treated once
Description: as §7, with “diameter. Starting from the day following transfer, the cells were treated with the substances to be tested in solution prepared with the nutrient medium during the exponential growth phase.” for “diameter.”

[15] = tested on: MCF-7 xenograft; assay: In vivo antitumour effect on MCF-7 xenograft; set-up: species or system immunosuppressed CBA/Ca mice
Description: as §2, §3
In the case of MCF-7 tumours (xenografts) the examinations were carried out with passages being in the phase of the 37th and 38th, respectively, transplantations.
In the case of mice bearing MCF-7 xenograft, the treatment was begun in the 4th week following xeno-transplantation.
as §4

[16] = Castration effect: uterus weight of xenograft-bearing animals; format: in vivo, mice
[17] = tested on: MCF-7 human mammary carcinoma cell line; assay: Inhibition of colony formation (dose-survival), Example 48; format: cell-based; details: 10 μM
Text: MCF-7 human mammary carcinoma cell line was stabilized in 1973 by Soule et al. from the pleural fluid of a patient suffering from mammary carcinoma. MDA-MB-231 human mammary carcinoma cell line was isolated and stabilized by Cailleau et al. in 1974 similarly from pleural fluid. Both cell lines grow in monolayer. […] MCF-7 cell line is estradiol receptor (ER)-positive containing proteins specifically binding GnRH. Thus, it represents, a useful model system for investigating the direct effect of GnRH mediated by the GnRH receptor. Being ER-negative and GnRH receptor-positive, MDA-MB-231 cell line is similarly suitable to study the direct effect of GnRH. PC3 human prostate carcinoma cell line was stabilized in cell culture by Kaighn et al. in 1979. The cells are of epithelial type and form compact colonies in clonogenic assays. The Ishikawa cell line originates from human endometrial adenocarcinoma [M. Nishida et al.: Acta Obstet. Gynecol. Jpn. 37, 1103-1111 (1985)], it is epithelial in its character and contains steroid-as well as GnRH receptors. The examination gives accurate information about the cell-damaging effect of the substance tested as a function of varying doses. The treatment was carried out once; the colonies formed from the surviving cells were counted after 8-12 days. […] A part of the arrested cells again entered the cycle, an other part of them might be destroyed (apoptosis). […] The treatment was once carried out 24 hours after setting, then the colonies formed were counted after 8-12 days. The cells were treated once after 24 hours with 1-50 μM of various GnRH analogues of Examples above or with 1-50 μM of GnRH-III, respectively. The percentages of inhibition obtained on MCF-7, MDA-MB-231, PC3 and Ishikawa cells, respectively, together with the dose of the active agent used are shown in Table VIII.

[18] = tested on: ovulation of female rats; assay: Ovulation / cycle of female rats during treatment for three cycles; format: in vivo, rat; details: high dose of the coupled GnRH-III; three cycles observed
Text: In 1993, researchers isolated and synthesized the Lamprey-III-GnRH decapeptide from lamprey (Petromyzon marinus) (p[…]NH2).
On comparison to healthy individuals, the functioning of the protective mechanism (immunostatus) of patients suffering from tumour is more unfavourable. Since the protective (immune) mechanism is enhanced by the compound, its tumour-inhibiting action can more strongly become valid. […] This effect may particularly be preferred on young patients suffering from mammary tumour, where a castration would cause psychic disturbances. In a way different from other conjugates, P-GFLG-GnRH-III gradually induces an inhibition of continually increasing grade during the long-lasting treatment for 7 weeks; and at the end of treatment, tumour-free animals are observed whereas in the case of other conjugates the degree of inhibition increases only up to the fifth week of treatment, then a stagnation in the grade of inhibition can be observed.

[19] = 1 × 100 μg daily s.c., week 6 (Table V)

NCCCC[C@H](NC(=O)[C@H](Cc1c[nH]c2ccccc12)NC(=O)[C@H](CC(=O)O)NC(=O)[C@H](Cc1c[nH]cn1)NC(=O)[C@H](CO)NC(=O)[C@H](Cc1c[nH]c2ccccc12)NC(=O)[C@H](Cc1c[nH]cn1)NC(=O)[C@@H]1CCC(=O)N1)C(=O)N1CCC[C@H]1C(=O)NCC(N)=O [GnRH-III, reference compound]
Inhibition of cell proliferation [1]: 40-39%
Effect on the rate of tumour growth ([2]; 100 μg daily s.c.): did not inhibit the rate of tumour growth
Tumour volume as control (%) ([2]; 1 × 100 μg daily s.c., week 4): 85%
Tumour volume as control (%) ([2]; 1 × 100 μg daily s.c., week 6): 85%
Inhibition % [2, 19]: 15%
Tumour volume as control (%) [2, 19]: 85%
Inhibition of colony formation [3]: did not inhibit
% Inhibition of colony formation [4]: 21%
LH-releasing effect compared with human GnRH [5]: about thousand times weaker
Inhibition of ovulation [6]: did not inhibit the ovulation

Ac-D-Trp1,3,D-Cpa2,{D-Lys[n-poly-(N-vinylpyrrolidone-co-maleic acid)-Gly-Phe-Leu-Gly]}6. D-Ala10-GnRH [P-GFLG-1544]
Inhibition of colony formation [7]: 100%
% Inhibition of colony formation [8]: 100%
% Inhibition of colony formation [9]: 100%
% Inhibition of colony formation ([10]; 10 μM): 100%
% Inhibition of colony formation ([10]; 50 μM): 100%
Inhibition of colony formation ([10]; 30 to 50 μM): 100%
% Inhibition of cell division [11]: 58%
% Inhibition of cell division [12]: 45%
% Inhibition of cell division [13]: 95%
% Inhibition of cell division [14]: 68.5%
Inhibition % ([15]; 1 × 50 μg, week 2): 30%
Inhibition % ([15]; 1 × 50 μg, week 6): 49%
Tumour volume as control (%) ([15]; 1 × 50 μg, week 6): 51%
Influence on the rate of tumour growth ([15]; first study, conjugates 150 μg in every 3rd day, P-GFLG-OH daily s.c. corresponding to 50 μg): not influenced
Tumour-free animals ([15]; repeated study, 6th week): a tumour-free animal was found
Tumour volume ([2]; 1 × 50 μg daily s.c., week 2): 0.21 cm3
Tumour volume ([2]; 1 × 50 μg daily s.c., week 3): 0.24 cm3
Tumour volume as control (%) ([2]; 1 × 50 μg daily s.c., week 3): 66%
Tumour volume ([2]; 1 × 50 μg daily s.c., week 6): 0.36 cm3
Tumour volume as control (%) ([2]; 1 × 100 μg daily s.c., week 3): 65%
Animals from 7 treated that became tumour-free ([2]; 100 μg daily s.c.): 1
Tumour-free animals ([2]; end of the 6th week, first series): A tumour-free animal was found
Decrease of uterus weight ([16]; animals bearing MCF-7 xenografts, treatment for four weeks): 42%
Decrease of uterus weight ([16]; animals bearing MDA-MB-231 xenografts, treatment for twelve weeks): 50%
% Inhibition of colony formation [17]: 15%

{Lys[n-poly(N-vinylpyrrolidone-co-maleic acid)-Gly-Phe-Leu-Gly-]}8,-GnRH-III [P-GFLG-GnRH-III]
Tumour volume ([2]; 1 × 100 μg daily s.c., week 6): 0.40 cm3
Animals from 7 treated that became tumour-free ([2]; 100 μg daily s.c.): 2
Influence on the cycle of female rats (castration effect) [18]: not influenced

From US20060189539A1, “Novel GnRH analogues with antitumour effects and pharmaceutical compositions thereof” (priority 1994, published 2006)
